Results taken from ChEMBL document CHEMBL5154705, “Discovery and mechanistic study of thiazole-4-acylsulfonamide derivatives as potent and orally active ChemR23 inhibitors with a long-acting effect in cynomolgus monkeys” (Bioorg Med Chem, 2022).

Assays:
[1] = biological target: T1, Chemerin-like receptor 1 (Homo sapiens) (UniProt Q99788); details: CAL1
T1 sequence (whole entry): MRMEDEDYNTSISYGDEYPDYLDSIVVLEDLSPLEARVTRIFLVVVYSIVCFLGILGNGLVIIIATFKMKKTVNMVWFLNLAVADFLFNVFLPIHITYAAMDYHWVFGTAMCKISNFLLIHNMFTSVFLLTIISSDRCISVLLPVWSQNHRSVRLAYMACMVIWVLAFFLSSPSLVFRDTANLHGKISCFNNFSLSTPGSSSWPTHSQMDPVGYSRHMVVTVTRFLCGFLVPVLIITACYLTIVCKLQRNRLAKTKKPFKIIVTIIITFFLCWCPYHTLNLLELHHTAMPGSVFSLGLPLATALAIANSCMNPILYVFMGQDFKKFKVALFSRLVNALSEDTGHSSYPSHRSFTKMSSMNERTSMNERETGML

[2] = Drug concentration in cynomolgus monkey plasma at 1 mg/kg, po after 8 hrs; type: ADME, organism-based, Macaca fascicularis
[3] = Cmax in cynomolgus monkey at 1 mg/kg, po; type: ADME, organism-based, Macaca fascicularis; parameters: dose 1 mg/kg, route po; details: in vivo
[4] = Half life in cynomolgus monkey at 1 mg/kg, po; type: ADME, organism-based, Macaca fascicularis; details: in vivo
[5] = Tmax in cynomolgus monkey at 1 mg/kg, po; type: ADME, organism-based, Macaca fascicularis; details: in vivo
[6] = AUC(0 to infinity) in cynomolgus monkey at 1 mg/kg, po; type: ADME, organism-based, Macaca fascicularis; parameters: time infinity, dose 1 mg/kg, route po; details: in vivo
[7] = MRT in cynomolgus monkey at 1 mg/kg, po; type: ADME, organism-based, Macaca fascicularis; details: in vivo
[8] = Half life in cynomolgus monkey at 0.3 to 1 mg/kg, po; type: ADME, organism-based, Macaca fascicularis; details: in vivo, dose 0.3-1 mg/kg
[9] = AUC(0 to infinity) in cynomolgus monkey at 0.3 to 1 mg/kg, po; type: ADME, organism-based, Macaca fascicularis; parameters: route po; details: in vivo, dose 0.3-1 mg/kg
[10] = MRT in cynomolgus monkey at 0.3 to 1 mg/kg, po; type: ADME, organism-based, Macaca fascicularis; details: in vivo, dose 0.3-1 mg/kg
[11] = Cmax in cynomolgus monkey at 0.3 to 1 mg/kg, po; type: ADME, organism-based, Macaca fascicularis; parameters: route po; details: in vivo, dose 0.3-1 mg/kg
[12] = Tmax in cynomolgus monkey at 0.3 to 1 mg/kg, po; type: ADME, organism-based, Macaca fascicularis; details: in vivo, dose 0.3-1 mg/kg
[13] = biological target: T1, Chemerin-like receptor 1 (Homo sapiens); assay: Binding affinity to ChemR23 (unknown origin) expressed in HEK293T cells at 40 to 1000 nM by flow cytometric analysis; type: cell-based; details: dose 40-1000 nM, DDE = dose-dependent effect
[14] = Cmax in cynomolgus monkey at 0.3 mg/kg, po; type: ADME, organism-based, Macaca fascicularis; parameters: dose 0.3 mg/kg, route po; details: in vivo
[15] = Tmax in cynomolgus monkey at 0.3 mg/kg, po; type: ADME, organism-based, Macaca fascicularis; details: in vivo
[16] = AUC(0 to infinity) in cynomolgus monkey at 0.3 mg/kg, po; type: ADME, organism-based, Macaca fascicularis; parameters: time infinity, dose 0.3 mg/kg, route po; details: in vivo
[17] = Half life in cynomolgus monkey at 0.3 mg/kg, po; type: ADME, organism-based, Macaca fascicularis; details: in vivo
[18] = Drug concentration in cynomolgus monkey plasma at 0.3 mg/kg, po after 8 hrs; type: ADME, organism-based, Macaca fascicularis
[19] = MRT in cynomolgus monkey at 0.3 mg/kg, po; type: ADME, organism-based, Macaca fascicularis; details: in vivo
[20] = biological target: T2, Chemerin-like receptor 1 (Homo sapiens, UniProt Q99788); assay: Inhibition of human ChemR23 expressed in CAL-1 cells assessed as reduction in chemerin-induced calcium signaling; type: functional, cell-based, CAL1
T2 sequence (Q99788 whole entry): T1 sequence (whole entry)

[21] = biological target: T2, Chemerin-like receptor 1; assay: Inhibition of human ChemR23 expressed in CAL-1 cells assessed as receptor internalization; type: functional, cell-based, CAL1

SMILES: Cc1ccc(-c2nc(=O)o[nH]2)c(-c2ccc([C@@H](C)N(CC3CC3)c3nc(C(=O)NS(=O)(=O)C4CC4)c(-c4cccnc4)s3)cc2)c1
- IC80 [1]: 39 nM

SMILES: Cc1ccc(-c2nc(=O)s[nH]2)c(-c2ccc([C@@H](C)N(CC3CC3)c3nc(C(=O)NS(=O)(=O)C4CC4)c(C4CC4)s3)cc2)c1
- concentration at 8 h [2]: 2090 ng/mL
- Cmax [3]: 4190 ng/mL
- half-life [4]: 3.2 h
- Tmax [5]: 4 h
- AUC(0-inf) [6]: 39800 ng·h/mL
- MRT [7]: 6.5 h

SMILES: Cc1ccc(-c2nc(=O)o[nH]2)c(-c2ccc([C@@H](C)N(CC3CC3)c3nc(C(=O)NS(=O)(=O)C4CC4)c(C(C)C)s3)cc2)c1
- concentration at 8 h [2]: 1140 ng/mL
- half-life [8]: 2.4 h
- AUC(0-inf) [9]: 33800 ng·h/mL
- MRT [10]: 5.2 h
- IC80 [1]: 18 nM
- Cmax [11]: 5670 ng/mL
- Tmax [12]: 4 h

SMILES: Cc1ccc(-c2nc(=O)o[nH]2)c(-c2ccc([C@@H](C)N(CC3CC3)c3nc(C(=O)NS(=O)(=O)C4CC4)c(C4CCOC4)s3)cc2)c1 (stereo partly specified)
- IC80 [1]: 12 nM

SMILES: Cc1sc(N(CC2CC2)[C@H](C)c2ccc(-c3cc(Cl)ccc3-c3nc(=O)o[nH]3)cc2)nc1C(=O)NC1CC1
- IC80 [1]: > 330 nM

SMILES: C[C@H](c1ccc(-c2cc(Cl)ccc2C(=O)O)cc1)N(CC1CC1)c1nc(C(=O)NS(=O)(=O)C2CC2)c(C2CC2)s1
- IC80 [1]: 24 nM

SMILES: C[C@H](c1ccc(-c2cc(Cl)ccc2C(=O)NCCOCCOCCOCCOCCOCCOCCn2nnc3c2-c2ccccc2N(C(=O)CCNC(=O)CCOCCOCCOCCOCCNC(=O)c2ccc(C(=O)[O-])c(-c4c5ccc(=[N+](C)C)cc-5oc5cc(N(C)C)ccc45)c2)Cc2ccccc2-3)cc1)N(CC1CC1)c1nc(C(=O)NS(=O)(=O)C2CC2)c(C2CC2)s1
- Activity [13]: Dde

SMILES: Cc1ccc(-c2nc(=O)o[nH]2)c(-c2ccc([C@@H](C)N(CC3CC3)c3nc(C(=O)NS(=O)(=O)C4CC4)c(-c4ccncc4)s3)cc2)c1
- IC80 [1]: 74 nM

SMILES: CCONC(=O)c1ccc(Cl)cc1-c1ccc([C@@H](C)N(CC2CC2)c2nc(C(=O)NS(=O)(=O)C3CC3)c(C3CC3)s2)cc1
- Cmax [14]: 296 ng/mL
- Tmax [15]: 4 h
- AUC(0-inf) [16]: 2060 ng·h/mL
- half-life [17]: 2.6 h
- concentration at 8 h [18]: 87.7 ng/mL
- MRT [19]: 5.3 h

SMILES: Cc1ccc(-c2nc(=O)o[nH]2)c(-c2ccc([C@@H](C)N(CC3CC3)c3nc(C(=O)NS(=O)(=O)C4CC4)c(-c4ccoc4)s3)cc2)c1
- IC80 [1]: > 330 nM

SMILES: Cc1sc(N(CC2CC2)[C@H](C)c2ccc(-c3cc(Cl)ccc3-c3nc(=O)o[nH]3)cc2)nc1C(=O)NS(=O)(=O)C1CC1
- concentration at 8 h [2]: 18 ng/mL
- Cmax [3]: 1210 ng/mL
- AUC(0-inf) [6]: 3740 ng·h/mL

SMILES: CCc1sc(N(CC2CC2)[C@H](C)c2ccc(-c3cc(C)ccc3-c3nc(=O)o[nH]3)cc2)nc1C(=O)NS(=O)(=O)C1CC1
- concentration at 8 h [2]: 85.7 ng/mL
- half-life [8]: 3 h
- AUC(0-inf) [9]: 10300 ng·h/mL
- MRT [10]: 2.9 h
- IC80 [1]: 63 nM
- Cmax [11]: 5970 ng/mL
- Tmax [12]: 1.7 h

SMILES: Cc1sc(N(CC2CC2)[C@H](C)c2ccc(-c3cc(Cl)ccc3-c3nc(=O)o[nH]3)cc2)nc1C(=O)O
- concentration at 8 h [2]: 7.9 ng/mL
- Cmax [3]: 646 ng/mL
- AUC(0-inf) [6]: 2210 ng·h/mL

SMILES: C[C@H](c1ccc(-c2cc(Cl)ccc2C(=O)NCCOCCOCCOCCOCCOCCOCCN=[N+]=[N-])cc1)N(CC1CC1)c1nc(C(=O)NS(=O)(=O)C2CC2)c(C2CC2)s1
- IC50 [20]: 12 nM
- EC50 [21]: 22 nM

SMILES: C[C@H](c1ccc(-c2cc(Cl)ccc2C(=O)NCCOCCOCCOCCOCCOCCOCCn2nnc3c2-c2ccccc2N(C(=O)CCNC(=O)CCOCCOCCOCCOCCNC(=O)CCCC[C@@H]2SC[C@@H]4NC(=O)N[C@@H]42)Cc2ccccc2-3)cc1)N(CC1CC1)c1nc(C(=O)NS(=O)(=O)C2CC2)c(C2CC2)s1
- IC50 [20]: 14 nM

SMILES: C[C@H](c1ccc(-c2cc(Cl)ccc2C(N)=O)cc1)N(CC1CC1)c1nc(C(=O)NS(=O)(=O)C2CC2)c(C2CC2)s1
- Cmax [14]: 730 ng/mL
- Tmax [15]: 1.3 h
- AUC(0-inf) [16]: 2950 ng·h/mL
- half-life [17]: 1.8 h
- concentration at 8 h [18]: 68.9 ng/mL
- IC80 [1]: 9.8 nM
- MRT [19]: 3.4 h

SMILES: CNC(=O)c1ccc(C)cc1-c1ccc([C@@H](C)N(CC2CC2)c2nc(C(=O)NS(=O)(=O)C3CC3)c(C3CC3)s2)cc1
- concentration at 8 h [2]: 996 ng/mL
- Cmax [3]: 2810 ng/mL
- IC80 [1]: 57 nM
- half-life [4]: 3 h
- Tmax [5]: 4 h
- AUC(0-inf) [6]: 21400 ng·h/mL
- MRT [7]: 6.1 h
